According to patent publication US20220235057A1, “CYCLIC FORMYL AND CYCLIC KETONE COMPOUNDS, PREPARATION METHOD THEREFOR, AND PHARMACEUTICAL USE” (priority 2019, published 2022):

Tests used:
Assay type in all cases: cell-based
[1] = system: Usutu virus (USUV); assay: anti-Usutu virus activity (inhibition rate); details: for inhibition at 11 µM / inhibition at 33 µM: Usutu virus
[2] = system: Zika virus (ZIKV); assay: anti-Zika virus activity (inhibition rate); details: for inhibition at 11 µM / inhibition at 33 µM: Zika virus
[3] = system: drug resistant strains of Acinetobacter baumannii; assay: anti-drug resistant strains of Acinetobacter baumannii (inhibition zone)
[4] = resistant strain of Acinetobacter baumannii no. 16
[5] = resistant strain of Acinetobacter baumannii no. 17
[6] = resistant strain of Acinetobacter baumannii no. 18
[7] = resistant strain of Acinetobacter baumannii no. 19
[8] = resistant strain of Acinetobacter baumannii no. 20

SMILES | inhibition at 11 µM ([1]; Drug concentration 11 μM) | inhibition at 33 µM ([1]; Drug concentration 33 μM) | inhibition at 11 µM ([2]; Drug concentration 11 μM) | inhibition at 33 µM ([2]; Drug concentration 33 μM) | further results
O=C1C2CCc3ccccc3N2C(c2ccc(O)cc2)N1Nc1ccccc1 (single isomer, unassigned) [ZXD-86B] |  |  |  |  | Anti-USUV activity (inhibition rate) ([1]; Drug concentration 11 μM): +++ (+++: Complete suppression); Anti-USUV activity (inhibition rate) ([1]; Drug concentration 33 μM): +++ (+++: Complete suppression); Anti-ZIKV activity (inhibition rate) ([2]; Drug concentration 11 μM): + (+: Partial suppression); Anti-ZIKV activity (inhibition rate) ([2]; Drug concentration 33 μM): +++ (+++: Complete suppression)
O=C(NN1C(=O)[C@@H]2Cc3ccccc3N2[C@H]1c1ccc([N+](=O)[O-])cc1)c1ccc([N+](=O)[O-])cc1 [ZDL-11] | < 0% | 0 to 100% | < 0% | < 0% | 
O=C1[C@@H]2Cc3ccccc3N2[C@@H](c2ccc([N+](=O)[O-])cc2)N1Nc1ccccc1 [ZDL-19] | < 0% | > 100% | < 0% | 0 to 100% | 
COc1cc([C@H]2N(Nc3ccccc3)C(=O)[C@@H]3Cc4ccccc4N32)ccc1O [ZDL-21] | < 0% | < 0% | < 0% | 0 to 100% | 
O=C1[C@@H]2Cc3ccccc3N2[C@@H](c2ccc([N+](=O)[O-])cc2)N1NS(=O)(=O)c1ccc([N+](=O)[O-])cc1 [ZDL-38] | < 0% | 0 to 100% | < 0% | < 0% | 
O=C1[C@@H]2Cc3ccccc3N2[C@@H](c2ccc(O)cc2)N1NS(=O)(=O)c1ccc([N+](=O)[O-])cc1 [ZDL-39] | < 0% | < 0% | < 0% | 0 to 100% | 
CC1(C)OC[C@]2(C)C(CC[C@@]3(C)[C@H](C[C@H]4N(NS(=O)(=O)c5ccc([N+](=O)[O-])cc5)C(=O)[C@@H]5Cc6ccccc6N54)C(=O)CC[C@@H]32)O1 (some centres unmarked) [ZDL-41] |  |  |  |  | Anti-USUV activity (inhibition rate) ([1]; Drug concentration 11 μM): +++ (+++: Complete suppression); Anti-ZIKV activity (inhibition rate) ([2]; Drug concentration 11 μM): +++ (+++: Complete suppression)
C=C1CC[C@@H]2[C@]3(C)COC(C)(C)O[C@@H]3CC[C@@]2(C)[C@@H]1C[C@H]1N(Nc2ccc([N+](=O)[O-])cc2)C(=O)[C@@H]2Cc3ccccc3N21 [ZDL-43] | > 100% | > 100% | > 100% | > 100% | 
O=C1C2CCCC2C(c2ccccc2)N1c1ccccc1 (centres unmarked) [ZDL-60] | < 0% | 0 to 100% | < 0% | 0 to 100% | 
O=C1C2CCCC2C(c2ccccc2)N1c1ccc([N+](=O)[O-])cc1 (centres unmarked) [ZDL-61] | < 0% | > 100% | < 0% | 0 to 100% | 
O=C1C2CCCC2C(c2ccc(Cl)cc2)N1c1ccccc1 (centres unmarked) [ZDL-62] | < 0% | > 100% | < 0% | 0 to 100% | 
Cc1cnc2c(S(=O)(=O)N3CCCCC3C(=O)NNc3ccc(F)cc3)cccc2c1 (centres unmarked) [ZKD-21] |  |  |  |  | inhibition zone, diameter [3, 4]: 60 mm; inhibition zone, diameter [3, 5]: 48 mm; inhibition zone, diameter [3, 6]: 53 mm; inhibition zone, diameter [3, 7]: 64 mm; inhibition zone, diameter [3, 8]: 68 mm
O=C1[C@@H]2Cc3ccccc3CN2C(c2ccc(O)cc2)N1c1ccc([N+](=O)[O-])cc1 (some centres unmarked) [ZSD-7] |  |  |  |  | Anti-USUV activity (inhibition rate) ([1]; Drug concentration 11 μM): − (−: Inactive); Anti-USUV activity (inhibition rate) ([1]; Drug concentration 33 μM): +++ (+++: Complete suppression); Anti-ZIKV activity (inhibition rate) ([2]; Drug concentration 11 μM): − (−: Inactive); Anti-ZIKV activity (inhibition rate) ([2]; Drug concentration 33 μM): +++ (+++: Complete suppression)
COc1cc(C2N(c3ccc([N+](=O)[O-])cc3)C(=O)[C@@H]3Cc4ccccc4CN23)ccc1O (some centres unmarked) [ZSD-8] | < 0% | < 0% | 0 to 100% | > 100% | 
O=C1[C@@H]2Cc3ccccc3CN2C(c2ccc(O)c(O)c2)N1c1ccc([N+](=O)[O-])cc1 (some centres unmarked) [ZSD-11] | < 0% | 0 to 100% | < 0% | > 100% | 
COc1ccc(C2N(c3ccc([N+](=O)[O-])cc3)C(=O)[C@@H]3Cc4ccccc4CN23)cc1OC (some centres unmarked) [ZSD-12B] | < 0% | 0 to 100% | < 0% | < 0% | 
O=C(NNc1ccc([N+](=O)[O-])cc1)[C@@H]1Cc2ccccc2CN1 [ZSD-15] |  |  |  |  | inhibition zone, diameter [3, 4]: 44 mm; inhibition zone, diameter [3, 5]: 40 mm; inhibition zone, diameter [3, 6]: 68 mm; inhibition zone, diameter [3, 7]: 68 mm; inhibition zone, diameter [3, 8]: 40 mm
O=C1[C@@H]2Cc3ccccc3CN2C(c2ccc([N+](=O)[O-])cc2)N1Nc1ccccc1 (some centres unmarked) [ZSD-18] | < 0% | 0 to 100% | < 0% | 0 to 100% | 
O=C1[C@@H]2Cc3ccccc3CN2C(c2ccc(O)cc2)N1Nc1ccccc1 (some centres unmarked) [ZSD-20] |  |  |  |  | Anti-USUV activity (inhibition rate) ([1]; Drug concentration 11 μM): − (−: Inactive); Anti-USUV activity (inhibition rate) ([1]; Drug concentration 33 μM): + (+: Partial suppression); Anti-ZIKV activity (inhibition rate) ([2]; Drug concentration 11 μM): − (−: Inactive); Anti-ZIKV activity (inhibition rate) ([2]; Drug concentration 33 μM): +++ (+++: Complete suppression)
O=C1C2Cc3ccccc3CN2C(c2ccc(O)c(O)c2)N1Nc1ccccc1 (centres unmarked) [ZSD-30A] |  |  |  |  | Anti-USUV activity (inhibition rate) ([1]; Drug concentration 11 μM): − (−: Inactive); Anti-USUV activity (inhibition rate) ([1]; Drug concentration 33 μM): +++ (+++: Complete suppression); Anti-ZIKV activity (inhibition rate) ([2]; Drug concentration 11 μM): − (−: Inactive); Anti-ZIKV activity (inhibition rate) ([2]; Drug concentration 33 μM): − (−: Inactive)
CC1(C)OB(c2ccc(C3N(Nc4ccccc4)C(=O)[C@@H]4Cc5ccccc5CN34)cc2)OC1(C)C (some centres unmarked) [ZSD-32] | < 0% | 0 to 100% | < 0% | < 0% | 
O=C1[C@@H]2Cc3ccccc3CN2C(Cc2ccc(O)c(O)c2)N1Nc1ccccc1 (some centres unmarked) [ZSD-36] |  |  |  |  | Anti-USUV activity (inhibition rate) ([1]; Drug concentration 11 μM): − (−: Inactive); Anti-USUV activity (inhibition rate) ([1]; Drug concentration 33 μM): + (+: Partial suppression); Anti-ZIKV activity (inhibition rate) ([2]; Drug concentration 11 μM): − (−: Inactive); Anti-ZIKV activity (inhibition rate) ([2]; Drug concentration 33 μM): − (−: Inactive)
O=C(NNc1ccc(F)cc1)[C@@H]1Cc2ccccc2CN1 [ZSD-54] |  |  |  |  | inhibition zone, diameter [3, 4]: 50 mm; inhibition zone, diameter [3, 5]: 58 mm; inhibition zone, diameter [3, 6]: 47 mm; inhibition zone, diameter [3, 7]: 68 mm; inhibition zone, diameter [3, 8]: 68 mm
O=C(NNc1ccccc1)C1CCc2ccccc2N1C(=O)OCc1ccccc1 (centres unmarked) [ZXD-51] |  |  |  |  | Anti-USUV activity (inhibition rate) ([1]; Drug concentration 11 μM): − (−: Inactive); Anti-USUV activity (inhibition rate) ([1]; Drug concentration 33 μM): − (−: Inactive); Anti-ZIKV activity (inhibition rate) ([2]; Drug concentration 11 μM): − (−: Inactive); Anti-ZIKV activity (inhibition rate) ([2]; Drug concentration 33 μM): + (+: Partial suppression)
O=C(Nc1ccc([N+](=O)[O-])cc1)C1CCc2ccccc2N1 (centres unmarked) [ZXD-53] | < 0% | < 0% | < 0% | 0 to 100% | 
O=C(Nc1ccc([N+](=O)[O-])cc1)C1CCc2ccccc2N1C(=O)O (centres unmarked) [ZXD-62] |  |  |  |  | Anti-USUV activity (inhibition rate) ([1]; Drug concentration 11 μM): − (−: Inactive); Anti-USUV activity (inhibition rate) ([1]; Drug concentration 33 μM): + (+: Partial suppression); Anti-ZIKV activity (inhibition rate) ([2]; Drug concentration 11 μM): − (−: Inactive); Anti-ZIKV activity (inhibition rate) ([2]; Drug concentration 33 μM): +++ (+++: Complete suppression)
O=C1C2CCc3ccccc3N2C(c2ccc(CO)cc2)N1Nc1ccccc1 (centres unmarked) [ZXD-157B] | > 100% |  |  |  | 
O=C(NNc1ccc(F)cc1)C1CCc2ccccc2N1 (centres unmarked) [ZXD-F] |  |  |  |  | inhibition zone, diameter [3, 4]: 65 mm; inhibition zone, diameter [3, 5]: 68 mm; inhibition zone, diameter [3, 6]: 68 mm; inhibition zone, diameter [3, 7]: 68 mm; inhibition zone, diameter [3, 8]: 68 mm
O=C1C(c2ccccc2)C(c2ccc(O)cc2)N2CCC[C@@H]12 (some centres unmarked) [ZXP-10] | < 0% | 0 to 100% |  |  | 
